The values that follow come from patent publication US20110257148A1, “NOVEL 1-ALKYL-3-HYDROXY-3-PHENYLAZETIDINE DERIVATIVES USEFUL AS MODULATORS OF CORTICAL CATECHOLAMINERGIC NEUROTRANSMISSION” (NSAB, FILIAL AF N[…] AB, SVERIGE, priority 2008, published 2011).

Where a name gives a salt, the structure may show the parent alone.

A word on the melting point: it is the temperature of the solid-liquid transition. Consider `CCCN1CC(O)(c2cc(F)cc(Cl)c2)C1` (as salt: fumaric acid salt), for which the melting point fell in the range of 147 to 149 °C. As for `CCCN1CC(O)(c2cccc(F)c2F)C1` (as salt: fumaric acid salt) [Example 1, 3-(2,3-DIFLUOROPHENYL)-1-PROPYLAZETIDIN-3-OL], the melting point is 161 to 165 °C. `CC(C)N1CC(O)(c2cc(F)cc(F)c2)C1` (as salt: fumaric acid salt) returned a melting point of 185 to 186 °C. `CCCN1CC(O)(c2ccc(F)c(F)c2)C1` (as salt: fumaric acid salt) yielded a melting point of 157 to 159 °C. As to `CCCN1CC(O)(c2cc(F)cc(F)c2)C1` (as salt: fumaric acid salt), the melting point fell in the range of 162 to 164 °C. `CCCN1CC(O)(c2cccc(Cl)c2F)C1` (as salt: fumaric acid salt) [Example 6, 3-(3-Chloro-2-Fluorophenyl)-1-Propylazetidin-3-Ol]: the melting point lay within 167 to 168 °C.
